The values that follow come from patent publication US5116971A, “Substituted-1,4-diazepines” (Boehringer Ingelheim KG, priority 1986, dated 1992).

SMILES strings stand for the structures. pIC50: −log10 of the molar value.

The first test has as its system human platelets (aggregation induced by PAF). Put plainly: inhibition of PAF-induced blood platelet aggregation in vitro. In kind it is cell-based. Particulars: Homo sapiens, read-out: IC50 (concentration for 50% inhibition of aggregation). As for the experimental part:
To determine the PAF-antagonistic action of substances, use was made of the aggregation of human platelets induced in vitro by PAF. To obtain platelet-rich plasma (PRP), blood is taken from an uncompressed vein using a plastic syringe containing 3.8% strength sodium citrate solution. The ratio between sodium citrate solution and blood is 1:9. After careful mixing, the citrated blood is centrifuged at 150×g (1200 rpm) for 20 minutes. The platelet aggregation is measured by the method worked out by Born and Cross (G. V. R. Born and M. J. Cross, J. Physiol. 168, 178 (1963)), with PAF being added to the continuously stirred PRP to initiate the aggregation. The test substance is added in a volume of 10 ul in each case 2-3 minutes before initiation of the aggregation. The solvents used are either distilled water, ethanol and/or dimethyl sulphoxide. Blanks contain corresponding volumes of these solvents. After the initial absorption has been recorded (2-3 minutes), aggregation is induced with PAF (5×10^-8 M). To assess the effects of substances, use is made of the maximum of the first aggregation wave. The maximum absorption rate (=maximum aggregation×100%) induced by PAF is, in each case, simultaneously checked in a parallel mixture (=blank in one channel of the two-channel aggregometer) for each test mixture (second channel) and used as the 100% value. The aggregation obtained under the influence of the test substance is […].
With `Cc1nnc2n1-c1ccc(Cl)cc1C(c1ccccc1Cl)=NC2` [Triazolam, triazolam, reference compound], the pIC50 was 5.05. For `COC(=O)CCNC(=O)c1ccc2c(c1)C(c1ccccc1Cl)=NCc1ncc(C)n1-2` [compound 2], the pIC50 is 6.05. Take `Cc1nnc2n1-c1ccc(C(=O)NCC(=O)N3CCOCC3)cc1C(c1ccccc1Cl)=NC2` [compound 4]: the pIC50 is 6.15. With `COC(=O)C[C@H](NC(=O)c1ccc2c(c1)C(c1ccccc1Cl)=NCc1nnc(C)n1-2)C(=O)OC` [compound 5], the pIC50 was 5.92. Regarding `Cc1nnc2n1-c1ccc(C(=O)NC3CCSC3=O)cc1C(c1ccccc1Cl)=NC2` (stereo not drawn) [compound 11], the pIC50 is 5.46. As for `Cc1nnc2n1-c1ccc(CC(=O)NCC(=O)N3CCOCC3)cc1C(c1ccccc1Cl)=NC2` [compound 12], the pIC50 was 5.96. For `COC(=O)[C@@H](CCSC)NC(=O)c1ccc2c(c1)C(c1ccccc1Cl)=NCc1nnc(C)n1-2` [compound 15], the pIC50 is 6.05. Take `CCN(CC)C(=O)[C@H](CC(C)C)NC(=O)c1ccc2c(c1)C(c1ccccc1Cl)=NCc1nnc(C)n1-2` [compound 16]: the pIC50 was 6.40. With `Cc1nnc2n1-c1ccc(C(=O)N3CCC[C@H]3C(=O)N3CCOCC3)cc1C(c1ccccc1Cl)=NC2` [compound 18], the pIC50 was 5.09. Consider `Cc1nnc2n1-c1ccc(C(=O)N[C@H](C(=O)NC(C)C)C(C)C)cc1C(c1ccccc1Cl)=NC2` [compound 27], for which the pIC50 was 6.15. As to `COc1nnc2n1-c1ccc(C(=O)NCC(=O)N3CCOCC3)cc1C(c1ccccc1Cl)=NC2` [compound 33], the pIC50 was 5.60. For the compound `C[C@H](NC(=O)c1ccc2c(c1)C(c1ccccc1Cl)=NCc1nnc(C3CC3)n1-2)C(=O)N1CCCC1` [compound 35], the pIC50 is 6.05.

The same test, now with this note: read-out: IC50 (concentration for 50% inhibition of aggregation), Table A, human PRP, PAF 5×10^-8 M.
Take `Cc1nnc2n1-c1ccc(C(=O)NCC(=O)N3CCOCC3)cc1C(c1ccccc1Cl)NC2` (stereo not drawn) [compound 21]: the pIC50 is 5.72. Regarding `Cc1nnc2n1-c1sc(C(=O)N(C)CC(=O)N3CCOCC3)cc1C(c1ccccc1Cl)=NC2` [compound 28], the pIC50 is 5.72. Take `Cc1nnc2n1-c1sc(CCC(=O)NCC(=O)N3CCOCC3)cc1C(c1ccccc1Cl)=NC2` [compound 48]: the pIC50 was 6.22.
